{
  "source": "patent US20210052512A1",
  "about": "“CANNABIDIOL PREPARATIONS AND ITS USES” (GW Research Limited, priority 2018, published 2021)",
  "key": {"[1]": {"system": "human iPSC derived cerebral cortical neural stem/progenitor cells (hNSCs)", "assay": "Axonal outgrowth and neuronal differentiation of hNSCs (GAP43 immunocytochemistry)", "format": "cell-based", "conditions": "1 μM", "description": "Human iPSC-derived cerebral cortical neural stem cells (hNSCs) (Axol Bioscience Inc., UK) were cultured as monolayers at a density of 1.0×10^4 cells/cm^2 on 100 mm diameter Petri dishes. The cells were collected from their original cryovial, suspended in Plating-XF Medium and plated on Petri dishes coated with SureBondXF 1× working solution prepared in D-PBS (without calcium or magnesium). hNSCs were incubated at 37° C. and 5% CO2 and 24 hours after of incubation, the plating medium was replaced with fresh Neural Expansion-XF Medium supplemented with the growth factors Recombinant Human EGF and Recombinant Human FGF2 (final concentration of 20 ng/mL (1×) of FGF2 and EGF). The cultures were re-fed with fresh Neural Expansion-XF supplemented with EGF and FGF2 every two days. When the hNSCs reached approximately 80% confluence, they were prepared for treatment. Pre-warmed Axol Unlock-XF was used to detach the cells and after 3 minutes of incubation the cells were re-suspended in Neural Expansion-XF Medium supplemented with EGF and FGF2. The cells (1×10^4 cells/cm^2) were then plated in Petri dishes coated with SureBondXF 1× and after 2 hours the medium was replaced with fresh Neural Expansion-XF supplemented with EGF and FGF2. […]"}, "[2]": {"system": "sub-chronic PCP-induced deficit in novel object recognition", "assay": "Novel object recognition (NOR) test after sub-chronic PCP", "format": "in vivo, rats", "description": "Female hooded-Lister rats were used for this experiment. Rats were housed in groups of 5 under standard laboratory conditions under a 12 hr light: dark cycle, with lights on at 0700 hr. Testing was carried out in the light phase. Rats were randomly assigned to two treatment groups and treated with vehicle, n=20 (distilled water, i.p.) or Phencyclidine hydrochloride (PCP), n=100 (2 mg/kg, i.p. twice daily for 7-days). PCP was dissolved in distilled water. This was followed by a 7-day wash out period before the rats were tested following acute treatment with CBD, risperidone or vehicle.\nRisperidone (0.1 mg/kg) was dissolved in a minimum volume of acetic acid, made up to volume with distilled water and pH adjusted to 6 with 0.1M NaOH and administered via the i.p. route in a volume of 1 ml/kg, 120 minutes prior to testing.\nBotanically derived purified CBD was tested at 2, 10, 20 or 100 mg/kg and was dissolved in 2:1:17 (Ethanol:Cremofor:Saline 0.9%) and administered via the i.p. route in a volume of 5 ml/kg, 60 minutes prior to testing. The THC concentration in the botanically derived purified CBD was 0.03% (w/w) THC.\nSynthetic CBD at 1, 2, 5, 10 or 20 mg/kg was dissolved in 2:1:17 (Ethanol:Cremofor:Saline 0.9%) and administered via the i.p. route in a volume of 5 ml/kg, 120 minutes prior to testing.\nRats were allowed to habituate to the empty test box and the behavioral test room environment for one hour on day 1. Prior to behavioral testing on day 2, rats were given a further 3 minute habituation.\nFollowing the 3 minute habituation period, the rats are given two 3 minute trials (T1 and T2) which were separated by a 1 minute inter-trial interval in the home cage during which the objects were changed. Behavior in all trials was recorded on video for subsequent blind scoring.\nIn the acquisition trial (T1), the animals were allowed to explore two identical objects (A1 and A2) for 3 minutes. In the retention trial (T2), the animals were allowed to explore a familiar object (A) from T1 and a novel object (B) for 3 minutes. […]\nThe exploration time(s) of each object (A, B, familiar and novel) in each trial were recorded using two stopwatches and the following factors were calculated: total exploration time of both objects in the acquisition trial, total exploration time of both objects in the retention trial. Habituation of exploratory activity included the exploration time, as measured by the number of lines crossed, for both trials.\nAll data were assessed for normality using D'Agostino and Pearson normality test. Data non-normally distributed were analyzed using Kruskal-Wallis followed by planned comparisons with Dunn's correction. Normally distributed data were analyzed using one-way ANOVA followed by planned comparisons with Sidak's correction. […]"}, "[3]": {"system": "human iPSC derived cerebral cortical neural stem/progenitor cells (hNSCs)", "assay": "Neurogenesis and neuronal differentiation of hNSCs (MAP2+ cell count, immunohistochemistry)", "format": "cell-based", "conditions": "for Mean % MAP2+ cells (3 days): 3 days incubation; for Mean % MAP2+ cells (3 days) / Mean % MAP2+ cells (5 days): hNSCs; for Mean % MAP2+ cells (5 days): 5 days incubation", "description": "Human iPSC-derived cerebral cortical neural stem cells (hNSCs) (Axol Bioscience Inc., UK) were cultured as monolayers at a density of 1.0×10^4 cells/cm^2 on 100 mm diameter Petri dishes. The cells were collected from their original cryovial, suspended in Plating-XF Medium and plated on Petri dishes coated with SureBondXF 1× working solution prepared in D-PBS (without calcium or magnesium). hNSCs were incubated at 37° C. and 5% CO2 and 24 hours after of incubation, the plating medium was replaced with fresh Neural Expansion-XF Medium supplemented with the growth factors Recombinant Human EGF and Recombinant Human FGF2 (final concentration of 20 ng/mL (1×) of FGF2 and EGF). The cultures were re-fed with fresh Neural Expansion-XF supplemented with EGF and FGF2 every two days. When the hNSCs reached approximately 80% confluence, they were prepared for treatment. Pre-warmed Axol Unlock-XF was used to detach the cells and after 3 minutes of incubation the cells were re-suspended in Neural Expansion-XF Medium supplemented with EGF and FGF2. The cells (1×10^4 cells/cm^2) were then plated in Petri dishes coated with SureBondXF 1× and after 2 hours the medium was replaced with fresh Neural Expansion-XF supplemented with EGF and FGF2.\nhNSCs cultured as described above were plated at a density of 1×10^4 cells/cm^2 on SureBondXF-coated coverslips in the presence of botanically derived purified CBD; synthetic CBD; or vehicle diluted in the Neural Differentiation-XF Medium (DM, without growth factors) for 3-5 days at 37° C. in a 5% CO2/95% air atmosphere.\nCannabinoids were dissolved in 95% (v/v) ethanol and added to the medium to obtain final concentrations of 0.1 or 1 μM CBD.\nEthanol was added to the vehicle-treated cells for the whole differentiation period of 3-5 days wherein the final concentration was never higher than 0.05% (v/v).\nIn order to perform immunohistochemistry, the cells were fixed with 4% (w/v) paraformaldehyde. Nonspecific binding was blocked with 10% (v/v) fetal bovine serum and 0.1% (v/v) Triton X-100 and incubated with primary antibodies: mouse anti-Map2ab (Sigma-Aldrich; 1:200) and rabbit anti-GFAP (DAKO; 1:200) or rabbit anti-Gap43 (Synaptic System; 1:300 at room temperature for 4 hours. Secondary antibodies—anti-mouse Alexa594 (Life Technologies; 1:100) and anti-rabbit Alexa488 (Life Technologies; 1:100)—were used for immunofluorescence. Cells were then counterstained with DAPI, washed with PBS and cover slipped with Aquatex mounting medium (Merck, Darmstadt, Germany). The immunofluorescence was studied with an epifluorescence microscope (Leica AF6000) equipped with the appropriate filter and then acquired using a digital camera (Leica, DFC 340) connected to the microscope and image analysis software (Leica, LAS AF). No immunoreactivity was found in the samples processed for the control of specificity of each primary antibody used in the study, which was performed by omitting the primary antibody before adding the appropriate secondary antibody.\nDigital Leica LAS AF 2.2.0 software (Live Data Mode system) was used for counting Map2ab+DAPI+ cells. […] For each experimental condition, cells from 3 different tubes were each analyzed in triplicate and 3 frames were collected at 20× magnification. Data were analyzed with GraphPad Prism 6 software, version 6.05 (GraphPad, Inc.) and are expressed as mean±SEM. Statistical differences among groups were determined by two-way ANOVA followed by post hoc Bonferroni tests for comparison among means. […]"}, "[4]": {"system": "MES-induced tonic seizures", "assay": "Maximal electroshock seizure (MES) test", "format": "in vivo, mice", "conditions": "for HED - mg (human equivalent dose): converted to HED of 10 mg/kg, assuming 60 kg human", "description": "This study was performed using male C57Bl6 mice, weighing between 23.6-31.2 g, which were purchased from a licensed breeder (Charles River, UK). Naïve mice were acclimatized to the procedure room in their home cages, with food and water available ad libitum. Animals were housed in groups of 2-3, in standard caging on a 12 hr/12 hr light-dark cycle. All animals were tail marked and weighed at the beginning of the study. Animals were randomly assigned to vehicle or treatment groups.\nThe following drugs were used in this study: synthetic CBD (SYN) and botanically derived purified CBD (BOT). The control vehicle used was (1:1:18), which was 5% Ethanol, 5% Kolliphor, 90% saline, and has been used extensively throughout similar seizure tests. All drugs were dissolved in the control vehicle for comparison. Animals were dosed (10 ml/kg) i.p. at 60 minutes prior to the administration of the maximal electroshock seizure (MES) test. In addition to the vehicle group, the dosage groups used for each treatment and included doses of 10, 50, 100 (Experiment 1 only), 150 and 200 mg/kg for CBD (SYN) and CBD (BOT). The number of animals in each of these groups were 10 (n=10).\nTwo separate experiments were undertaken using two different batches of the botanically derived purified CBD. In the first experiment the concentration of THC in botanically derived purified CBD was 0.02% THC (w/w) whereas in the second experiment the concentration of THC in the botanically derived purified CBD was approximately 0.1% THC (w/w).\nThe protective activity of CBD (SYN) and CBD (BOT) was evaluated and expressed as effective doses (ED50 in mg/kg), protecting 50% of mice against MES-induced tonic seizures. Electroconvulsions were produced by a fixed current intensity of 30 mA and corneally delivered electroshock (0.2 second duration). Mice were individually assessed for seizures following this pre-determined high level (30 mA) corneally delivered electroshock of sufficient intensity to reliably produce tonic hind limb extension seizures in 100% of control animals. […]"}},
  "data": [
    {"compound": "C=C(C)[C@@H]1CCC(C)=C[C@H]1c1c(O)cc(CCCCC)cc1O", "note": "[Synthetic CBD, 2-[(1R,6R)-3-Methyl-6-(1-methylethenyl)-2-cyclohexen-1-yl]-5-pentyl-1,3-benzenediol]", "values": [
      {"measurement": "Mean % GAP43+ cells (3 days)", "setting": "[1]; 3 days incubation", "result": "8.40 ± 2.0", "unit": "%"},
      {"measurement": "Mean % GAP43+ cells (5 days)", "setting": "[1]; 5 days incubation", "result": "9.15 ± 1.6", "unit": "%"},
      {"measurement": "human daily amount equivalent to the rat MED", "setting": "[2]; 70 kg human", "result": 112, "unit": "mg/day"},
      {"measurement": "amount of CBD required in a human relative to botanically derived purified CBD", "setting": "[2]; from difference in MED", "result": "five times the amount of CBD"},
      {"measurement": "human equivalent dose of the rat MED", "setting": "[2]; rat dose multiplied by 0.16 (FDA dose conversion guidance)", "result": 1.6, "unit": "mg/kg/day"},
      {"measurement": "minimal effective dose (MED) attenuating sub-chronic PCP-induced deficit in novel object recognition", "setting": "[2]; rats, i.p., 120 min ppt", "result": 10, "unit": "mg/kg"},
      {"measurement": "Mean % MAP2+ cells (3 days)", "setting": "[3]; 0.1 μM", "result": "4.87 ± 0.1", "unit": "%"},
      {"measurement": "Mean % MAP2+ cells (5 days)", "setting": "[3]; 0.1 μM", "result": "6.02 ± 0.3", "unit": "%"},
      {"measurement": "Mean % MAP2+ cells (3 days)", "setting": "[3]; 1 μM", "result": "6.11 ± 0.3", "unit": "%"},
      {"measurement": "Mean % MAP2+ cells (5 days)", "setting": "[3]; 1 μM", "result": "7.09 ± 0.1", "unit": "%"},
      {"measurement": "Effect on neurogenesis and neuronal differentiation of hNSCs (in words)", "setting": "[3]; 0.1 and 1 μM, 3 or 5 days, relative to vehicle-treated cells", "result": "did not have a significant effect"},
      {"measurement": "HED - mg (human equivalent dose)", "setting": "[4]; Experiment 1", "result": 600.0, "unit": "mg"},
      {"measurement": "ED50 protecting 50% of mice against MES-induced tonic seizures", "setting": "[4]; Experiment 1, i.p. 60 minutes prior to MES, sigmoidal curve - constant top, listed as CBD (SYN)", "result": 77.60, "unit": "mg/kg"},
      {"measurement": "HED - mg (human equivalent dose)", "setting": "[4]; Experiment 2", "result": 600.0, "unit": "mg"}
    ]}
  ]
}
